Test results: ChEMBL document CHEMBL3885881, “DrugMatrix”

Species on record: Rattus norvegicus
Test: DrugMatrix - Regimen: Daily Repeat
Format: toxicity, organism-based, Sprague-Dawley
Set-up: regimen Daily Repeat, gender Male, age 6-8 weeks
Conditions: in vivo, po, route oral GAVAGE, vehicle .5 % CMC; for ABSOLUTE BASOPHIL / ABSOLUTE EOSINOPHIL / ABSOLUTE LYMPHOCYTE / ABSOLUTE MONOCYTE / ABSOLUTE SEGMENTED NEUTROPHIL / BASOPHIL / EOSINOPHIL / ERYTHROCYTE COUNT / HEMATOCRIT / HEMOGLOBIN / LEUKOCYTE COUNT / LYMPHOCYTE / MEAN CORPUSCULAR HEMOGLOBIN / MEAN CORPUSCULAR HEMOGLOBIN CONCENTRATION / MEAN CORPUSCULAR VOLUME / MONOCYTE / NEUTROPHIL / NUCLEATED RED BLOOD CELLS / PLATELET COUNT: tissue Blood; for ALANINE AMINOTRANSFERASE / ALBUMIN / ALKALINE PHOSPHATASE / ASPARTATE AMINOTRANSFERASE / BLOOD UREA NITROGEN / CARBON DIOXIDE / CHOLESTEROL / CREATINE PHOSPHOKINASE / CREATININE / GLUCOSE / LACTATE DEHYDROGENASE / LIPASE / PHOSPHORUS / SODIUM / TOTAL BILIRUBIN / TOTAL PROTEIN / URIC ACID: tissue Plasma
[1] = 15 mg/kg, 72 h, dose level Low, time 3 day
[2] = 15 mg/kg, 120 h, dose level Low, time 5 day
[3] = 750 mg/kg, 72 h, dose level High, time 3 day
[4] = 750 mg/kg, 120 h, dose level High, time 5 day

CC(C)(C)c1ccc(C(O)CCCN2CCC(C(O)(c3ccccc3)c3ccccc3)CC2)cc1 (centres undefined) [TERFENADINE]
ABSOLUTE BASOPHIL [1]: 0 CELLS/uL | ABSOLUTE EOSINOPHIL [1]: 0 CELLS/uL | ABSOLUTE LYMPHOCYTE [1]: 10879.67 CELLS/uL | ABSOLUTE MONOCYTE [1]: 121.67 CELLS/uL | ABSOLUTE SEGMENTED NEUTROPHIL [1]: 1165.33 CELLS/uL | BASOPHIL [1]: 0% | EOSINOPHIL [1]: 0% | ERYTHROCYTE COUNT [1]: 5.45 x10E6/uL | HEMATOCRIT [1]: 33.93% | HEMOGLOBIN [1]: 12.77 G/DL | LEUKOCYTE COUNT [1]: 12.17 x10E3/uL | LYMPHOCYTE [1]: 89.33% | MEAN CORPUSCULAR HEMOGLOBIN [1]: 23.43 pg | MEAN CORPUSCULAR HEMOGLOBIN CONCENTRATION [1]: 37.63 G/DL | MEAN CORPUSCULAR VOLUME [1]: 62.27 fL | MONOCYTE [1]: 1% | NEUTROPHIL [1]: 9.67% | NUCLEATED RED BLOOD CELLS [1]: 0 /100WBC | PLATELET COUNT [1]: 1158.33 x10E3/uL | ALANINE AMINOTRANSFERASE [1]: 52.67 u/L | ALBUMIN [1]: 4.13 G/DL | ALKALINE PHOSPHATASE [1]: 451 u/L | ASPARTATE AMINOTRANSFERASE [1]: 72 u/L | BLOOD UREA NITROGEN [1]: 16.67 mg/dL | CARBON DIOXIDE [1]: 22.67 mmol/L | CHOLESTEROL [1]: 70 mg/dL | CREATINE PHOSPHOKINASE [1]: 139.33 u/L | CREATININE [1]: 0.18 mg/dL | GLUCOSE [1]: 155.33 mg/dL | LACTATE DEHYDROGENASE [1]: 130.33 u/L | LIPASE [1]: 10.67 u/L | PHOSPHORUS [1]: 13.47 mg/dL | SODIUM [1]: 145.6 MEQ/L | TOTAL BILIRUBIN [1]: 0.17 mg/dL | TOTAL PROTEIN [1]: 6.1 G/DL | URIC ACID [1]: 1.37 mg/dL | ABSOLUTE BASOPHIL [2]: 0 CELLS/uL | ABSOLUTE EOSINOPHIL [2]: 0 CELLS/uL | ABSOLUTE LYMPHOCYTE [2]: 14283 CELLS/uL | ABSOLUTE MONOCYTE [2]: 352.67 CELLS/uL | ABSOLUTE SEGMENTED NEUTROPHIL [2]: 1897.67 CELLS/uL | BASOPHIL [2]: 0% | EOSINOPHIL [2]: 0% | ERYTHROCYTE COUNT [2]: 5.72 x10E6/uL | HEMATOCRIT [2]: 34.8% | HEMOGLOBIN [2]: 13.17 G/DL | LEUKOCYTE COUNT [2]: 16.53 x10E3/uL | LYMPHOCYTE [2]: 86.67% | MEAN CORPUSCULAR HEMOGLOBIN [2]: 23.03 pg | MEAN CORPUSCULAR HEMOGLOBIN CONCENTRATION [2]: 37.83 G/DL | MEAN CORPUSCULAR VOLUME [2]: 60.87 fL | MONOCYTE [2]: 2% | NEUTROPHIL [2]: 11.33% | NUCLEATED RED BLOOD CELLS [2]: 0 /100WBC | PLATELET COUNT [2]: 993 x10E3/uL | ALANINE AMINOTRANSFERASE [2]: 51.33 u/L | ALBUMIN [2]: 4.13 G/DL | ALKALINE PHOSPHATASE [2]: 285 u/L | ASPARTATE AMINOTRANSFERASE [2]: 91.33 u/L | BLOOD UREA NITROGEN [2]: 16 mg/dL | CARBON DIOXIDE [2]: 26.67 mmol/L | CHOLESTEROL [2]: 66.67 mg/dL | CREATINE PHOSPHOKINASE [2]: 518.33 u/L | CREATININE [2]: 0.2 mg/dL | GLUCOSE [2]: 156 mg/dL | LACTATE DEHYDROGENASE [2]: 390.67 u/L | LIPASE [2]: 10.67 u/L | PHOSPHORUS [2]: 13.3 mg/dL | SODIUM [2]: 144.33 MEQ/L | TOTAL BILIRUBIN [2]: 0.1 mg/dL | TOTAL PROTEIN [2]: 6 G/DL | URIC ACID [2]: 1.43 mg/dL | ABSOLUTE BASOPHIL [3]: 0 CELLS/uL | ABSOLUTE EOSINOPHIL [3]: 0 CELLS/uL | ABSOLUTE LYMPHOCYTE [3]: 14273 CELLS/uL | ABSOLUTE MONOCYTE [3]: 481.67 CELLS/uL | ABSOLUTE SEGMENTED NEUTROPHIL [3]: 1312 CELLS/uL | BASOPHIL [3]: 0% | EOSINOPHIL [3]: 0% | ERYTHROCYTE COUNT [3]: 6.18 x10E6/uL | HEMATOCRIT [3]: 38.5% | HEMOGLOBIN [3]: 14.53 G/DL | LEUKOCYTE COUNT [3]: 16.07 x10E3/uL | LYMPHOCYTE [3]: 88.67% | MEAN CORPUSCULAR HEMOGLOBIN [3]: 23.5 pg | MEAN CORPUSCULAR HEMOGLOBIN CONCENTRATION [3]: 37.77 G/DL | MEAN CORPUSCULAR VOLUME [3]: 62.27 fL | MONOCYTE [3]: 3% | NEUTROPHIL [3]: 8.33% | NUCLEATED RED BLOOD CELLS [3]: 0 /100WBC | PLATELET COUNT [3]: 1171.33 x10E3/uL | ALANINE AMINOTRANSFERASE [3]: 99 u/L | ALBUMIN [3]: 4.33 G/DL | ALKALINE PHOSPHATASE [3]: 343.33 u/L | ASPARTATE AMINOTRANSFERASE [3]: 108 u/L | BLOOD UREA NITROGEN [3]: 13.33 mg/dL | CARBON DIOXIDE [3]: 21.33 mmol/L | CHOLESTEROL [3]: 50 mg/dL | CREATINE PHOSPHOKINASE [3]: 417.33 u/L | CREATININE [3]: 0.18 mg/dL | GLUCOSE [3]: 144.33 mg/dL | LACTATE DEHYDROGENASE [3]: 236.33 u/L | LIPASE [3]: 8.67 u/L | PHOSPHORUS [3]: 12.17 mg/dL | SODIUM [3]: 145.77 MEQ/L | TOTAL BILIRUBIN [3]: 0.23 mg/dL | TOTAL PROTEIN [3]: 5.97 G/DL | URIC ACID [3]: 1.57 mg/dL | ABSOLUTE BASOPHIL [4]: 0 CELLS/uL | ABSOLUTE EOSINOPHIL [4]: 72 CELLS/uL | ABSOLUTE LYMPHOCYTE [4]: 15584.33 CELLS/uL | ABSOLUTE MONOCYTE [4]: 134.67 CELLS/uL | ABSOLUTE SEGMENTED NEUTROPHIL [4]: 2309 CELLS/uL | BASOPHIL [4]: 0% | EOSINOPHIL [4]: 0.33% | ERYTHROCYTE COUNT [4]: 6.8 x10E6/uL | HEMATOCRIT [4]: 40.3% | HEMOGLOBIN [4]: 15.4 G/DL | LEUKOCYTE COUNT [4]: 18.1 x10E3/uL | LYMPHOCYTE [4]: 86.33% | MEAN CORPUSCULAR HEMOGLOBIN [4]: 22.7 pg | MEAN CORPUSCULAR HEMOGLOBIN CONCENTRATION [4]: 38.23 G/DL | MEAN CORPUSCULAR VOLUME [4]: 59.33 fL | MONOCYTE [4]: 0.67% | NEUTROPHIL [4]: 12.67% | NUCLEATED RED BLOOD CELLS [4]: 0 /100WBC | PLATELET COUNT [4]: 1002.67 x10E3/uL | ALANINE AMINOTRANSFERASE [4]: 124.67 u/L | ALBUMIN [4]: 4.3 G/DL | ALKALINE PHOSPHATASE [4]: 360.33 u/L | ASPARTATE AMINOTRANSFERASE [4]: 104.67 u/L | BLOOD UREA NITROGEN [4]: 16.67 mg/dL | CARBON DIOXIDE [4]: 27.67 mmol/L | CHOLESTEROL [4]: 55.67 mg/dL | CREATINE PHOSPHOKINASE [4]: 566 u/L | CREATININE [4]: 0.26 mg/dL | GLUCOSE [4]: 128 mg/dL | LACTATE DEHYDROGENASE [4]: 180.33 u/L | LIPASE [4]: 9.67 u/L | PHOSPHORUS [4]: 12.07 mg/dL | SODIUM [4]: 145.6 MEQ/L | TOTAL BILIRUBIN [4]: 0.13 mg/dL | TOTAL PROTEIN [4]: 6.27 G/DL | URIC ACID [4]: 1.9 mg/dL
